Measured values from patent publication US8168651B2, “Protein kinase modulators” (Cylene Pharmaceuticals, Inc., priority 2008, dated 2012).
Like-named read-outs stand apart in the source and are kept apart here.

Legend:
[1] = test system: HCT-116 human colorectal carcinoma cells; test: Cell-proliferation assay using Alamar Blue dye; format: cell-based; conditions: Homo sapiens;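 further: cells exposed to compound for about 4 days, then Alamar Blue added and dye fluorescence read after about 4 h, compared with medium-only control wells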
K-562 [2] = test: Cell proliferation modulatory activity, K-562; format: cell-based; conditions: Homo sapiens, K562
recombinant human PIM1 = recombinant human PIM1 (Homo sapiens (Human), UniProt P11309); test: PIM-1 kinase activity in cell-free in vitro assay; format: biochemical; conditions: for inhibition at 0.5 µM: 500 nM compound, read-out: PIM-1: % inh 500 nM
MV-4-11 [3] = test: Cell proliferation modulatory activity, MV-4-11; format: cell-based; conditions: Homo sapiens, MV4-11
K-562 [4] = test: Cell proliferation modulatory activity, K-562; format: cell-based; conditions: Homo sapiens, K562; remark: listed apart in the source
Jurkat = test: Cell proliferation modulatory activity, Jurkat; format: cell-based; conditions: Homo sapiens
recombinant human CK2 = recombinant human CK2 (Homo sapiens (Human), UniProt P68400); test: CK2 assay (cell-free, 33P-ATP filter plate); format: biochemical; conditions: cell-free assay; for inhibition at 0.5 µM: 500 nM compound, read-out: CK2: % inh 500 nM
Flt3 = Flt3 (Homo sapiens (Human), UniProt P36888); test: FLT-3 kinase activity in cell free in vitro assay; format: biochemical; conditions: cell-free assay; read-out: FLT-3 (uM) IC50
K-562 [5] = test: Cell proliferation modulatory activity, K-562; format: cell-based; conditions: Homo sapiens, K562; K-562 cells
MV-4-11 [6] = test: Cell proliferation modulatory activity, MV-4-11; format: cell-based; conditions: Homo sapiens, MV4-11; MV-4-11 cells
MV-4-11 [7] = test: Cell proliferation modulatory activity, MV-4-11; format: cell-based; conditions: Homo sapiens, MV4-11; MV-4-11 cells; read-out: MV-4-11 (uM), cell proliferation modulatory activity
K-562 [8] = test: Cell proliferation modulatory activity, K-562; format: cell-based; conditions: Homo sapiens, K562; K-562 cells; read-out: K-562 (uM), cell proliferation modulatory activity
[9] = HCT-116, read-out: HCT-116 (uM), cell proliferation modulatory activity, HCT-116, second column
[10] = HCT-116, read-out: HCT-116 (uM), cell proliferation modulatory activity, HCT-116, second HCT-116 column (c8)
[11] = HCT-116, HCT-116, second HCT-116 column (c8), read-out: HCT-116 (uM), cell proliferation modulatory activity
[12] = HCT-116, second HCT-116 column (c8), read-out: HCT-116 (uM) cell proliferation modulatory activity
[13] = HCT-116, second of two HCT-116 columns (c8), read-out: HCT-116 (uM), cell proliferation modulatory activity

Sequence of Flt3 (P36888 27-993): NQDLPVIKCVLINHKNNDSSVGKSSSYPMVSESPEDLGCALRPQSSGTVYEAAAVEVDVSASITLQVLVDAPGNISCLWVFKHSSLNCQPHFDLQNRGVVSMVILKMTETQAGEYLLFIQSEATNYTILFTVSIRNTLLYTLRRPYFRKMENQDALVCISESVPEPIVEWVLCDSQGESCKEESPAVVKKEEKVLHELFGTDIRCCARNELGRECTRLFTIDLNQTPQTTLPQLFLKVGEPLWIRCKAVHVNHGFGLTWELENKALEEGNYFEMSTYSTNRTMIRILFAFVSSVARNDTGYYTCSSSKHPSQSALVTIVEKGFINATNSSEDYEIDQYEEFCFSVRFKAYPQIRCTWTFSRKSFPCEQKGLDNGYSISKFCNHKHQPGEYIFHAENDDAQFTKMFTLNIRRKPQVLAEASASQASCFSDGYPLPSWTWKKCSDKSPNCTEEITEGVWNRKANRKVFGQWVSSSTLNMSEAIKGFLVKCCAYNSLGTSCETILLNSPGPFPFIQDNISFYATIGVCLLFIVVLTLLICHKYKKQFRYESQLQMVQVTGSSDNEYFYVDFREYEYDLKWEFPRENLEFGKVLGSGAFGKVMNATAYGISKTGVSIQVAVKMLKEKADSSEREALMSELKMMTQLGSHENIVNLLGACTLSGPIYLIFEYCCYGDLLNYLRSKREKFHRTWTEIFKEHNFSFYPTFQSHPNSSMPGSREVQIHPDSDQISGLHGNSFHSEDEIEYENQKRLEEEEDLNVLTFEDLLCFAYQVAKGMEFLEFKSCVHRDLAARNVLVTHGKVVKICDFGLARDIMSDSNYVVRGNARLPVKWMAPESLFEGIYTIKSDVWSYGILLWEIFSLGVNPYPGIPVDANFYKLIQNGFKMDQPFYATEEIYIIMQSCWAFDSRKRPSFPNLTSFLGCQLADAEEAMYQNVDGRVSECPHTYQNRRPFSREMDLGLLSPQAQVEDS
Sequence of recombinant human CK2 (P68400 whole entry): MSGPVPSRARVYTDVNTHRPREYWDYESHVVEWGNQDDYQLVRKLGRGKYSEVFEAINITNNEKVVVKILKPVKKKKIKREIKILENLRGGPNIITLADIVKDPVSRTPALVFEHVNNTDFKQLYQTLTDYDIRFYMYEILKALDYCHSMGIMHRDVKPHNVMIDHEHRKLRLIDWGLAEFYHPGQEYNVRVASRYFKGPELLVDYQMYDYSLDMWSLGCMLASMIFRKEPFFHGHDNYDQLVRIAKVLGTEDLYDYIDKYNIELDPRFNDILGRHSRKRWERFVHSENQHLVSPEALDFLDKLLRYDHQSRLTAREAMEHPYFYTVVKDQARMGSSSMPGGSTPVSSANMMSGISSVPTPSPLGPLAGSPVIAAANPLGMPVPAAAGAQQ
Sequence of recombinant human CK2 (P67870 whole entry partner): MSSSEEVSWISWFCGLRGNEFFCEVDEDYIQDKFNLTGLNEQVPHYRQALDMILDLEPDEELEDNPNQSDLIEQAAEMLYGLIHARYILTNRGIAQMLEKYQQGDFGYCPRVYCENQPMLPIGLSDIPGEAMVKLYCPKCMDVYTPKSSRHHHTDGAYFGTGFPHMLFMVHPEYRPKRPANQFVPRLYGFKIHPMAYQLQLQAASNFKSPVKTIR
Sequence of recombinant human PIM1 (P11309 whole entry): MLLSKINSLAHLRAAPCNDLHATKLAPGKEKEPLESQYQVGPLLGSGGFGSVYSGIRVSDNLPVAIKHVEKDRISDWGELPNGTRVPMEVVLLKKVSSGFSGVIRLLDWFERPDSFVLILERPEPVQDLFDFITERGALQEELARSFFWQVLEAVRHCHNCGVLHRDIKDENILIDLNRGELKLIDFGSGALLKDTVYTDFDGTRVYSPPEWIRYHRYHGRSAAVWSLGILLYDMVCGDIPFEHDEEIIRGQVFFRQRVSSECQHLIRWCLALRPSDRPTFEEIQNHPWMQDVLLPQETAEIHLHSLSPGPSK

| SMILES | IC50 (MV-4-11 [3]) [µM] | IC50 (K-562 [4]) [µM] | IC50 (Jurkat) [µM] | inhibition at 0.5 µM (recombinant human PIM1; cell-free assay) [%] | IC50 [1, 11] [µM] | inhibition at 0.5 µM (recombinant human CK2) [%] | further results |
| --- | --- | --- | --- | --- | --- | --- | --- |
| O=C(O)c1ccc2c(c1)nc(Nc1cccc(F)c1)c1ncncc12 |  |  |  |  |  |  | IC50 [1, 9]: 7.1 µM; IC50 (K-562 [2]): 1.77 µM; inhibition at 0.5 µM (recombinant human PIM1; cell-free): 77.8%; IC50 (recombinant human PIM1; cell-free): 367 nM |
| O=C(O)c1ccc2c(c1)nc(Nc1ccccc1)c1nc(NC3CC3)ncc12 | 0.195 | 0.494 | 2.42 | 18.4 |  |  | IC50 [1, 10]: 1.94 µM |
| O=C(O)c1ccc2c(c1)nc(Nc1ccccc1)c1nc(NCCO)ncc12 | > 10 | > 10 |  | 45.6 |  |  |  |
| O=C(O)c1ccc2c(c1)nc(Nc1ccccc1)c1nc(NCCN3CCOCC3)ncc12 | 0.358 | 1.16 | 5.7 | 30.6 |  |  |  |
| C#Cc1cccc(Nc2nc3cc(C(=O)O)ccc3c3cnc(NC4CCNCC4)nc23)c1 | 0.237 | > 10 |  | 29 |  |  |  |
| O=C(O)c1ccc2c(c1)nc(Nc1ccc(Cl)c(C(F)(F)F)c1)c1ccncc12 | > 10 | > 10 | 3.05 | 73.6 |  |  | IC50 [1, 10]: 3.99 µM; IC50 (recombinant human PIM1; cell-free assay): 408 nM |
| O=C(O)c1ccc2c(c1)nc(Nc1cccc(Cl)c1)c1nc(NC3CC3)ncc12 | 0.257 | 0.158 | 1.29 |  |  |  | IC50 [1, 10]: 7.82 µM |
| CNc1ncc2c(n1)c(Nc1ccc(F)c(Cl)c1)nc1cc(C(=O)O)ccc12 | 0.655 | > 10 | 1.24 | 18.6 |  |  |  |
| O=C(O)c1ccc2c(c1)nc(Nc1ccc(F)c(Cl)c1)c1nc(NC3CC3)ncc12 | > 10 | > 10 | 1.54 | 6.63 |  |  |  |
| C#Cc1cccc(Nc2nc3cc(C(=O)O)ccc3c3cnc(NCCOCC)nc23)c1 | 0.141 | > 10 | 1.13 | 12.1 |  |  |  |
| Cc1cccc(Nc2nc3cc(C(=O)O)ccc3c3cnccc23)c1 | 0.593 | > 10 | 3.45 | 86.7 |  |  | IC50 (recombinant human PIM1; cell-free assay): 177 nM |
| O=C(O)c1ccc2c(c1)nc(Nc1cccc(C(F)(F)F)c1)c1ccncc12 | 0.354 | > 10 | 3.15 | 88.8 |  |  | IC50 [1, 10]: 5.14 µM; IC50 (recombinant human PIM1; cell-free assay): 160 nM |
| O=C(NC1CC1)c1ccc2c(c1)nc(NC1CC1)c1nc(NC3CC3)ncc12 | 0.497 | > 10 | 0.436 | -11.9 | 0.818 |  | IC50 (recombinant human CK2; 15 um ATP, read-out: CK2 (15 um ATP) IC50): > 750 nM |
| C#Cc1cccc(Nc2nc3cc(C(=O)N(C)C)ccc3c3cncnc23)c1 | 4.62 | 9.79 | 1.18 | -27.8 | 0.545 |  |  |
| O=C(O)c1ccc2c(c1)nc(NC1CC1)c1nc(Nc3ccc(F)cc3F)ncc12 | 2.29 | > 10 |  |  | > 10 |  |  |
| O=C(O)c1ccc2c(c1)nc(NC1CC1)c1nc(Nc3ccc(F)c(F)c3)ncc12 | 1.86 | > 10 |  | 14.1 | > 10 | 96.3 |  |
| COC(=O)c1ccc2c(c1)nc(NC1CC1)c1nc(C#N)ncc12 |  | 1.34 |  | 2.81 | > 10 |  |  |
| Cc1cnc(CNC(=O)c2ccc3c(c2)nc(N2CCN(C)CC2)c2ccsc23)cn1 | > 10 | > 10 |  | 37.3 | > 10 | -15 |  |
| O=C(O)c1ccc2c(c1)nc(NCc1cccc3ccccc13)c1ccncc12 |  | > 10 |  | 15.6 | > 10 |  |  |

| SMILES | IC50 (MV-4-11 [3]) [µM] | IC50 (K-562 [4]) [µM] | IC50 (Jurkat) [µM] | inhibition at 0.5 µM (recombinant human PIM1; cell-free assay) [%] | IC50 [1, 11] [µM] | inhibition at 0.5 µM (recombinant human CK2) [%] | further results |
| --- | --- | --- | --- | --- | --- | --- | --- |
| O=C(O)c1ccc2c(c1)nc(NCCc1ccccn1)c1ccncc12 | > 10 | > 10 |  | -8.95 | > 10 | 96.1 |  |
| O=C(O)c1ccc2c(c1)nc(NCc1ccccn1)c1ccncc12 | > 10 | > 10 |  | 14.3 | > 10 | 96.6 |  |
| Cc1cccc(N2CCN(c3nc4cc(C(=O)O)ccc4c4cnccc34)CC2)c1 |  | > 10 |  | 33.7 | > 10 |  |  |
| O=C(O)c1ccc2c(c1)nc(N1CCC(N3CCOCC3)CC1)c1ccncc12 | > 10 | > 10 |  | 20.7 | > 10 | 90.5 | IC50 (recombinant human PIM1; cell-free assay): 310 nM |
| COc1ccc(CCNc2nc3cc(C(=O)O)ccc3c3cnccc23)cc1OC | > 10 | > 10 |  | 9.85 | > 10 | 99 |  |
| Cc1ccccc1Nc1nc2cc(C(=O)O)ccc2c2cnccc12 | 0.985 | > 10 | 15.7 | 92.3 | > 10 |  | IC50 (recombinant human PIM1; cell-free assay): 158 nM |
| O=C(O)c1ccc2c(c1)nc(Nc1ccc(Br)cc1F)c1ccncc12 |  |  |  |  |  |  | IC50 [1, 12]: > 10 µM; IC50 (Flt3): 0.087 µM; IC50 (K-562 [5]): > 10 µM; IC50 (recombinant human PIM1; cell-free assay): 339 nM; IC50 (MV-4-11 [6]): 7.26 µM |
| NC(=O)c1ccc2c(c1)nc(Nc1ccc(F)c(Cl)c1)c1ccncc12 |  |  |  | -9.45 |  | 66.1 | IC50 [1, 12]: > 10 µM; IC50 (Flt3): 0.167 µM; IC50 (K-562 [5]): > 10 µM; IC50 (MV-4-11 [6]): 0.373 µM |
| NNC(=O)c1ccc2c(c1)nc(Nc1cccc(Cl)c1)c1ccncc12 |  |  |  | -10.8 |  | 34.9 | IC50 [1, 12]: > 10 µM; IC50 (Flt3): 0.075 µM; IC50 (K-562 [5]): > 10 µM; IC50 (MV-4-11 [6]): 2.14 µM |
| NC(=O)c1ccc2c(c1)nc(Nc1cc(F)cc(Cl)c1)c1ccncc12 |  |  |  | 5.67 |  | 55.9 | IC50 (Flt3): 0.012 µM; IC50 (K-562 [5]): > 10 µM; IC50 (MV-4-11 [6]): 0.222 µM |
| FC(F)(F)c1cccc(Nc2nc3cc(-c4nnn[nH]4)ccc3c3ccsc23)c1 |  |  |  | 10.8 |  | 17.4 | IC50 [1, 13]: > 10 µM; IC50 (MV-4-11 [7]): 1.1 µM; IC50 (K-562 [8]): > 10 µM |
| Fc1ccc(Nc2nc3cc(-c4nnn[nH]4)ccc3c3ccsc23)cc1Cl |  |  |  | 29.1 |  | 37.6 | IC50 [1, 13]: > 10 µM; IC50 (MV-4-11 [7]): 0.721 µM; IC50 (K-562 [8]): > 10 µM |
| Clc1ccc(Nc2nc3cc(-c4nnn[nH]4)ccc3c3ccsc23)cc1 |  |  |  | 40.4 |  | 23.9 | IC50 [1, 13]: > 10 µM; IC50 (MV-4-11 [7]): > 10 µM; IC50 (K-562 [8]): > 10 µM |
| Fc1ccc(Nc2nc3cc(-c4nnn[nH]4)ccc3c3ccsc23)cc1 |  |  |  | 54.7 |  | 30.3 | IC50 [1, 13]: > 10 µM; IC50 (MV-4-11 [7]): > 10 µM; IC50 (K-562 [8]): > 10 µM; IC50 (recombinant human PIM1; cell-free assay): 738 nM |
| O=C(O)c1ccc2c(c1)nc(NCCc1cccc(Cl)c1)c1ccncc12 [drawing 1559] |  |  |  |  |  |  | IC50 [1, 9]: > 10 µM; IC50 (K-562 [2]): 9.18 µM; inhibition at 0.5 µM (recombinant human PIM1; cell-free): 43.1%; IC50 (recombinant human PIM1; cell-free): 1060 nM |
| O=C(O)c1ccc2c(c1)nc(NCCCc1ccccc1)c1ccncc12 [drawing 1561] |  |  |  |  |  |  | IC50 [1, 9]: > 10 µM; IC50 (K-562 [2]): 7.17 µM; inhibition at 0.5 µM (recombinant human PIM1; cell-free): 69.7%; IC50 (recombinant human PIM1; cell-free): 441 nM |
| C#Cc1cccc(Nc2nc3cc(C(=O)O)ccc3c3cnc(NCC4CCCO4)nc23)c1 (centres unmarked) [drawing 1605] | 0.284 | > 10 | 2.04 | 1.48 |  |  | IC50 [1, 10]: > 10 µM |
| C#Cc1cccc(Nc2nc3cc(C(=O)O)ccc3c3cnc(NCC4CC4)nc23)c1 [drawing 1606] | 0.128 | 0.25 | 0.424 | 3.08 |  |  | IC50 [1, 10]: > 10 µM |
